One assay concerns Liver microsomes. The assay is described as follows: Antioxidant activity in rat liver microsomes assessed as inhibition of lipid peroxidation by TBA method. In kind it is functional, Microsome. On the technique in general: Microsomes from liver hold many membrane-bound enzymes, among them those of drug oxidation.
Assay [1] is described as follows: Inhibition of mouse brain monoamine oxidase by Krajl method.
For a further assay, the species on record is Mus musculus. The assay is described as follows: Inhibition of mouse brain monoamine oxidase up to 70 ug/mL by Krajl method.

Converted amounts (≈) assume the structure as drawn. The source made the active and inactive calls. The rule behind the calls is not given here.

For orientation: IC50 means the concentration that gives 50% inhibition. Turning to VITAMIN E, the IC50 in the assay with Liver microsomes stood at 0.8 µg/mL.
For the molecule `COc1cc2ccc(=O)oc2cc1O` [SCOPOLETIN], the concentration for half-maximal inhibition (IC50) in assay [1] was 19.4 µg/mL (≈ 101 µM).
Take `COc1cc([C@H]2Oc3c(OC)cc4ccc(=O)oc4c3O[C@@H]2CO)cc(OC)c1O` [CLEOMISCOSIN C]: in the assay on Liver microsomes, the 50% inhibitory concentration (IC50) is 0.7 µg/mL (≈ 1.68 µM).
Regarding `COc1c(OC)c(O)c2oc(=O)ccc2c1OC`, the IC50 in assay [1] turned out to be 44.5 µg/mL (≈ 176 µM).
`COc1cc([C@H]2Oc3c(OC)cc4ccc(=O)oc4c3O[C@@H]2CO)ccc1O` [CLEOMISCOSIN A]: the 50% inhibitory concentration (IC50) in the assay with Liver microsomes is 9 µg/mL (≈ 23.3 µM).
On to `COc1cc([C@@H]2Oc3c(c(OC)cc4ccc(=O)oc34)O[C@H]2CO)cc(OC)c1O` [CLEOMISCOSIN D], for which the IC50 in the assay with Liver microsomes amounted to 5.5 µg/mL (≈ 13.2 µM).
`COc1cc([C@H]2Oc3c(OC)cc4ccc(=O)oc4c3O[C@@H]2C)cc(OC)c1O`: the IC50 in the assay with Liver microsomes was determined as 1.4 µg/mL (≈ 3.5 µM). The outcome in the assay listed under Mus musculus was inactive.

Source of the values: ChEMBL document CHEMBL1156348, “Coumarins with monoamine oxidase inhibitory activity and antioxidative coumarino-lignans from Hibiscus syriacus” (J Nat Prod, 2001).
